The results in this text go back to patent US7387715B2, “Sample positioning and analysis system” (priority 1997, dated 2008).

Non-standard residues stand in square brackets, D forms with d. Residues, ends and D or L forms follow the SMILES beside them. Phe(ol) = N[C@H](CO)Cc1ccccc1; Aib = CC(C)(N)C(=O)O

Test [1] in a line: Voltage-clamp current recording of alamethicin pores in a vesicle-derived membrane over a chip aperture. The following applies: alamethicin 0.1 μg/mL final concentration in measurement compartment, 85 mM KCl. Format: biochemical. How it is done: In these experiments, a membrane is formed over an aperture in 85 mM KCl. Next, alamethicin is added to the measurement compartment, to a final concentration of 0.1 μg/mL.^xvii Finally, a potential is applied, and a plot of current versus time is generated.

In test [2] the test system is nAChR (nicotinic acetylcholine receptor). Kind of test: Voltage-clamp current recording of nAChR fused into a membrane on a Si/SiO2 carrier chip. Type of test: biochemical. The following applies: carbamylcholine 20 μM final concentration. How it is done:
In these experiments, a membrane is formed as above. Next, nAChR is introduced into the membrane via Ca^2+-mediated fusion. Specifically, nAChR is purified from an appropriate source, and then reconstituted into small unilamellar vesicles.^xviii Next, these vesicles are added to the measurement compartment, and then fused to the membrane by increasing the Ca^2+ concentration of the sample chamber to greater than about 1 mM. In given cases, the fusion is supported by the subsequent temporary setup of an osmotic gradient.^xix Finally, a potential is applied, and a plot of current versus time is generated. In the absence of agonists, typical receptor opening events are observed (FIG. 15A), whereas, in the presence of agonists, such as carbamylcholine (20 μM final concentration), such receptor opening events are substantially extinguished within a short time (t<100 seconds) (FIG. 15B).

Consider `CC(=O)NC(C)(C)C(=O)N1CCC[C@H]1C(=O)NC(C)(C)C(=O)N[C@@H](C)C(=O)NC(C)(C)C(=O)N[C@@H](C)C(=O)N[C@@H](CCC(N)=O)C(=O)NC(C)(C)C(=O)N[C@H](C(=O)NC(C)(C)C(=O)NCC(=O)N[C@@H](CC(C)C)C(=O)NC(C)(C)C(=O)N1CCC[C@H]1C(=O)N[C@H](C(=O)NC(C)(C)C(=O)NC(C)(C)C(=O)N[C@@H](CCC(=O)O)C(=O)N[C@@H](CCC(N)=O)C(=O)N[C@H](CO)Cc1ccccc1)C(C)C)C(C)C` [alamethicin] (Ac-[Aib]P[Aib]A[Aib]AQ[Aib]V[Aib]GL[Aib]PV[Aib][Aib]EQ[Phe(ol)]), for which the “conductivities of the alamethicin pores” value in test [1] is on record as 600 pS. Consider `C[N+](C)(C)CCOC(N)=O.[Cl-]` [carbamylcholine], for which the “receptor openings after addition of the agonist (desensitization)” value in test [2] (150 seconds after addition, 400 mM KCl, positive potentials) is “no receptor openings are observed”. Moreover, the “time within which receptor opening events are substantially extinguished in the presence of agonist” value in test [2] was less than 100 s.
